Results on five compounds are retold here after ChEMBL document CHEMBL1136175, “Synthesis and antimycobacterial activity of capuramycin analogues. Part 2: acylated derivatives of capuramycin-related compounds” (Bioorg Med Chem Lett, 2003).

Experiment [1] relates to Mycolicibacterium smegmatis. The experiment can be described thus: Antimycobacterial activity was determined against Mycobacterium smegmatis SANK75075. It is filed as functional.
Experiment [2] deals with Mycobacterium avium. Put plainly: Antimycobacterial activity against Mycobacterium avium NIHJ1605. Format: functional.
Experiment [3] deals with Mycobacterium kansasii. The experiment can be described thus: Antimycobacterial activity against Mycobacterium kansasii ATCC 12478. It is filed as functional.
In experiment [4] the test system is Mycobacterium intracellulare. The experiment can be described thus: Antimycobacterial activity against Mycobacterium intracellular ATCC 1954 E-3. Format: functional.
Experiment [5] has as its target T1, Phospho-N-acetylmuramoyl-pentapeptide-transferase (Escherichia coli K-12, UniProt P0A6W3).
T1 sequence (P0A6W3 whole entry): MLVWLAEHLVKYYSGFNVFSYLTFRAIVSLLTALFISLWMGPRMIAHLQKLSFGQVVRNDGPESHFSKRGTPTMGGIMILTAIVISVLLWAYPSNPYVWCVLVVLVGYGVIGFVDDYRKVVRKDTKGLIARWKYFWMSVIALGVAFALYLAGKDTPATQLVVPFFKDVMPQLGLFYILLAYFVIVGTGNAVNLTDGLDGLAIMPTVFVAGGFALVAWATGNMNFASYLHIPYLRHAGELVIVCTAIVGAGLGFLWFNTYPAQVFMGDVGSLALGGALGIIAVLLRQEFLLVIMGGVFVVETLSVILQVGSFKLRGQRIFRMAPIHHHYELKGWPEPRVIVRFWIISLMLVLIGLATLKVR
Put plainly: Inhibitory concentration required against Translocase I.

For experiment [6], the target named is T1, Phospho-N-acetylmuramoyl-pentapeptide-transferase. Put plainly: Inhibitory concentration against translocase-I.

SMILES strings stand for the structures. Converted amounts (≈) assume the structure as drawn.

As a reminder, the MIC is the lowest concentration that inhibits growth of the organism. One may read the IC50 as the concentration that inhibits the measured activity by half. A high value points to lower potency. With `CCCCCCCCCCCCCCC(=O)O[C@@H]1[C@H](OC)[C@@H]([C@@H](O[C@H]2OC(C(=O)N[C@H]3CCC[C@@H](C)NC3=O)=C[C@H](O)[C@@H]2O)C(N)=O)O[C@H]1n1ccc(=O)[nH]c1=O`, the MIC in experiment [1] is 6.25 µg/mL (≈ 7.74 µM); in experiment [2], 0.125 µg/mL (≈ 0.155 µM); in experiment [3], 4 µg/mL (≈ 4.95 µM); in experiment [4], 0.25 µg/mL (≈ 0.309 µM). Inhibition in experiment [5] was half-maximal at 2970 nM (IC50).
In the case of `CCCCCCCCCC(=O)O[C@@H]1[C@H](OC)[C@@H]([C@@H](O[C@H]2OC(C(=O)N[C@H]3CCCCNC3=O)=C[C@H](O)[C@@H]2O)C(N)=O)O[C@H]1n1ccc(=O)[nH]c1=O`, the minimum inhibitory concentration (MIC) was 12.5 µg/mL (≈ 17.3 µM) in experiment [1], 0.5 µg/mL (≈ 0.691 µM) in experiment [2], 1 µg/mL (≈ 1.38 µM) in experiment [3] and 0.25 µg/mL (≈ 0.345 µM) in experiment [4]. In experiment [6], inhibition was half-maximal at 414 nM (IC50).
In turn, `CCCCCCC(=O)O[C@@H]1[C@H](OC)[C@@H]([C@@H](O[C@H]2OC(C(=O)N[C@H]3CCCCNC3=O)=C[C@H](O)[C@@H]2O)C(N)=O)O[C@H]1n1ccc(=O)[nH]c1=O` came in with an MIC in experiment [1] of 25 µg/mL (≈ 36.7 µM). Further, the IC50 in experiment [6] was 58.7 nM.
For `CCCCCCCCC(=O)O[C@@H]1[C@H](OC)[C@@H]([C@@H](O[C@H]2OC(C(=O)N[C@H]3CCCCNC3=O)=C[C@H](O)[C@@H]2O)C(N)=O)O[C@H]1n1ccc(=O)[nH]c1=O`, in that order: 12.5 µg/mL (≈ 17.6 µM) and 254 nM.
For `CO[C@H]1[C@@H](O)[C@H](n2ccc(=O)[nH]c2=O)O[C@@H]1[C@@H](O[C@H]1OC(C(=O)N[C@H]2CCCCNC2=O)=C[C@H](O)[C@@H]1O)C(N)=O` [CAPURAMYCIN], the MIC in experiment [1] was 12.5 µg/mL (≈ 21.9 µM); in experiment [2] it was 8 µg/mL (≈ 14 µM); in experiment [3], 8 µg/mL (≈ 14 µM); in experiment [4], 8 µg/mL (≈ 14 µM). Also, in experiment [6], the IC50 is 17.6 nM.
